The term Ki denotes the dissociation constant of the complex between target and ligand, obtained from inhibition or displacement. High values mean weaker binding, low ones tighter binding.

Assay [1] deals with Casein kinase I isoform delta (Rattus norvegicus, UniProt Q06486).
Assay [2] has as its target Cyclin-dependent kinase 2 (Homo sapiens, UniProt P24941).
The target in assay [3] is Dual specificity tyrosine-phosphorylation-regulated kinase 1A (Rattus norvegicus, UniProt Q63470).
The target of assay [4] is Ninein (Homo sapiens, UniProt Q8N4C6).
In assay [5] the target is T1, Serine/threonine-protein kinase Sgk1 (Homo sapiens, UniProt O00141).
T1 sequence (O00141 whole entry): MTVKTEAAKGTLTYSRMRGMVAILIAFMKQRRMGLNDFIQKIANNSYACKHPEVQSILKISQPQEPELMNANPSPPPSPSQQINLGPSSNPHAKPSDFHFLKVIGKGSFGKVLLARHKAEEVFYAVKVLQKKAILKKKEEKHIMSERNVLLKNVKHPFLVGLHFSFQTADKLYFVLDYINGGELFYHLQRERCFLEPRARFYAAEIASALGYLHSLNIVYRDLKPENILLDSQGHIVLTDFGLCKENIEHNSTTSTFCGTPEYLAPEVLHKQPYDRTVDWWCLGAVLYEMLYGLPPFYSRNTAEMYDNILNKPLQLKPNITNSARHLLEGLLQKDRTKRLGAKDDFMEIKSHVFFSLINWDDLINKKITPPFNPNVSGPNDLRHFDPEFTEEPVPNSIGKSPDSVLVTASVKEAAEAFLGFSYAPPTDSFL

For assay [6], the target named is Tyrosine-protein kinase Lck (Homo sapiens, UniProt P06239).
Chain of Tyrosine-protein kinase Lck (P06239 whole entry): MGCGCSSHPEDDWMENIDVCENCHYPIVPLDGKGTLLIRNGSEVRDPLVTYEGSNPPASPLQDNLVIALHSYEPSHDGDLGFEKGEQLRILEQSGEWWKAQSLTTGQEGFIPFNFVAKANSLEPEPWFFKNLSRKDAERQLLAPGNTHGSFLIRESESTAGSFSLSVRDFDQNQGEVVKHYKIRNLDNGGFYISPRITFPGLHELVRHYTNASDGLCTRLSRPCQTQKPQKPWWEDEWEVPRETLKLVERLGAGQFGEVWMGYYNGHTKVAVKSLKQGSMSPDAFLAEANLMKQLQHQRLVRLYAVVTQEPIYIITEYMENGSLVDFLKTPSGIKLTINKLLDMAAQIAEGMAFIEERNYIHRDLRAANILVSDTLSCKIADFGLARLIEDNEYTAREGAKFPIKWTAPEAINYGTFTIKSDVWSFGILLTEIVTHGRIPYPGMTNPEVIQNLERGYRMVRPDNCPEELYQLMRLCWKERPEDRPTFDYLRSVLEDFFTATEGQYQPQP

Chain of Ninein (Q8N4C6 whole entry): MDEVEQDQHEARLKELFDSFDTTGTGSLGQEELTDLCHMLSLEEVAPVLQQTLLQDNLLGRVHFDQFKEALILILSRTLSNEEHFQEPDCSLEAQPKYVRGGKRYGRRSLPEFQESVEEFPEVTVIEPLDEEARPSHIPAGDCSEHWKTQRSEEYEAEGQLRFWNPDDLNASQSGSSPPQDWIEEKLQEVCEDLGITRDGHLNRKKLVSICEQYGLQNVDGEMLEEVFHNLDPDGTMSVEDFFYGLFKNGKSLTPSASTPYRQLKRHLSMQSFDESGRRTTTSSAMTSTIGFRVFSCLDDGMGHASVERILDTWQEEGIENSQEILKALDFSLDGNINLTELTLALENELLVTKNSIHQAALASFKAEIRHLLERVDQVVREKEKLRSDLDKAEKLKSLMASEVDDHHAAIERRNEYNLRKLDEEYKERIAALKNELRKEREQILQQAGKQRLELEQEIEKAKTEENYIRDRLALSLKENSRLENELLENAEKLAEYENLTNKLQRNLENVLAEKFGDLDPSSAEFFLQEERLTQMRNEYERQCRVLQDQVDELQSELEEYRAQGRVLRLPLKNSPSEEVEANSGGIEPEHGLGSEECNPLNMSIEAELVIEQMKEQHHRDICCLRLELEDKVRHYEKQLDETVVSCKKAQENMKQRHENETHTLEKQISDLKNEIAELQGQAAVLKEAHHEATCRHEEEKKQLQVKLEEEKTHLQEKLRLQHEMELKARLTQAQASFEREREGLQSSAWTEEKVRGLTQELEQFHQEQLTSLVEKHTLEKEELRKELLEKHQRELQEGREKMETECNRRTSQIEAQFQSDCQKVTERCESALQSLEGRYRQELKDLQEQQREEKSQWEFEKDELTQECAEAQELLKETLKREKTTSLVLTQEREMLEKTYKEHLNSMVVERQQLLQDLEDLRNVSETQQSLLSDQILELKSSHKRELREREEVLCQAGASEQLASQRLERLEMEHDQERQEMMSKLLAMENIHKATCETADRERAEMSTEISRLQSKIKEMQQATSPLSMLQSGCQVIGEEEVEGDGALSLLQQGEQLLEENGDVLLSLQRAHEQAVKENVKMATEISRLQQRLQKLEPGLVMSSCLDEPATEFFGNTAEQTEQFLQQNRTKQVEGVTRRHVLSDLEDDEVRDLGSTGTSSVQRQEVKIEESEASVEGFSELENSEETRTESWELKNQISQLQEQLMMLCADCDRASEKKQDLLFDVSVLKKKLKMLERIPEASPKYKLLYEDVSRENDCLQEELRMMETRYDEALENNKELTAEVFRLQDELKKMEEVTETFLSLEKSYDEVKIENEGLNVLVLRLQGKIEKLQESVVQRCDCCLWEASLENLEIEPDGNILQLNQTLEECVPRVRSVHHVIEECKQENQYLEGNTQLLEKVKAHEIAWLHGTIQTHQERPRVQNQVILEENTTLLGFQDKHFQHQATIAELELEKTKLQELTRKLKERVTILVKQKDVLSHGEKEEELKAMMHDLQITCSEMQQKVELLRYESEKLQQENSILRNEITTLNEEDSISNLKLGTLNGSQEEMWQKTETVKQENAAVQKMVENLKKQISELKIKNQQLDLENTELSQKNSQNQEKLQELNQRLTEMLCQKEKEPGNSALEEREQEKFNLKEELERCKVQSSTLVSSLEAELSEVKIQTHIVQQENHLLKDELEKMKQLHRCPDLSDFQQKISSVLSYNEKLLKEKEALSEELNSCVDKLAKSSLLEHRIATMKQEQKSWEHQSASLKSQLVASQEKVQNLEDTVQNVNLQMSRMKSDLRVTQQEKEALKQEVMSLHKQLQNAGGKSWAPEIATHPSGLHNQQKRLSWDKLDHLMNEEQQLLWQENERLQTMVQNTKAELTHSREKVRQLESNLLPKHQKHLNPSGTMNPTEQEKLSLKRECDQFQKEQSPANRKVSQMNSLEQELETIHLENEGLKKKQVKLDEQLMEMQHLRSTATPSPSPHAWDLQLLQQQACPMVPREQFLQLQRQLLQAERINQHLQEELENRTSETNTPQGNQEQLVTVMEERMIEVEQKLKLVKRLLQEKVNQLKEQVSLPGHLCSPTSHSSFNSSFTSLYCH
Chain of Casein kinase I isoform delta (Q06486 whole entry, canonical isoform): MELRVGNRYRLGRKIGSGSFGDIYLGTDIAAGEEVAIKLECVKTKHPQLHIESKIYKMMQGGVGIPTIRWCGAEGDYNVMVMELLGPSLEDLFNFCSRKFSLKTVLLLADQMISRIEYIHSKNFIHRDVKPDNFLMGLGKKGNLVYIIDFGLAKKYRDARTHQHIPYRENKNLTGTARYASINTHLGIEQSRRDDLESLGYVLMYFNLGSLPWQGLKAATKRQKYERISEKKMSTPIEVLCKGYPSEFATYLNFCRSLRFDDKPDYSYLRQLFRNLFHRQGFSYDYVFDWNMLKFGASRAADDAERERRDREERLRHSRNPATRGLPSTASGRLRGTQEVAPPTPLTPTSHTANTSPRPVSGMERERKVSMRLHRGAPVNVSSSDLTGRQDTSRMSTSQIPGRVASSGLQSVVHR

Turning to `Nc1ncnc2c1cnn2-c1ccccc1` [1-Phenyl-1H-pyrazolo[3,4-d]pyrimidin-4-ylamine], the Ki in assay [1] worked out at 9900 nM.

In the case of `CC[C@H](CO)Nc1nc(NCc2ccccc2)c2ncn(C(C)C)c2n1` [2,6,9-Trisubstituted purine deriv. 28], in assay [1], the Ki was above 10000 nM. On to `CC(C)[C@H](CO)Nc1nc(Nc2cccc(Cl)c2)c2ncn(C(C)C)c2n1` [(2R)-2-({6-[(3-chlorophenyl)amino]-9-(propan-2-yl)-9H-purin-2-yl}amino)-3-methylbutan-1-ol], for which the Ki in assay [2] is 100 nM; in assay [3] it was 300 nM. As for `O=Nc1c(C2C(=O)Nc3ccccc32)[nH]c2ccccc12` (centres undefined) [Indirubin-3 -monoxime], the Ki was 190 nM in assay [4], 380 nM in assay [5], 300 nM in assay [6] and 590 nM in assay [2]. `O=C1Cc2c([nH]c3ccc([N+](=O)[O-])cc23)-c2ccccc2N1` [NSC 705701] displayed a Ki in assay [4] of 110 nM.

Source of the values: BindingDB's records for doi:10.1042/BJ20021535 (University of Dundee, 2003).
